These results are taken from ChEMBL document CHEMBL1201862, “PubChem BioAssay data set” (2004).

Test systems include CCRF-CEM; SF-539; OVCAR-8; SK-MEL-5; UO-31; SW-620; SK-MEL-2; RXF 393; LOX IMVI; UACC-62; HOP-62; 786-0; NCI-H23; NCI-H226; SN12C; HOP-92; RPMI-8226; NCI/ADR-RES; BT-549; T47D.
Assay in all cases: NCI tumour cell line growth inhibition, 48 h

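Compound exposure: 48 hours, 5 concentrations, 96-well plates. Abbreviation: GI50, concentration required for 50% inhibition of growth.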 The source made the active and inactive calls. No stated cut-off is given here; in the data, active = GI50 up to about 1.1 µM and inactive = higher.

Take `Oc1ccc2c(c1)OCC1(O)Cc3cc(O)c(O)cc3C21` (stereo not given): the GI50 with CCRF-CEM is 29.7 µM (inactive); in the assay with SF-539 it was 17 µM (inactive); in the assay with OVCAR-8, 21.9 µM (inactive); in the assay on SK-MEL-5 it was 17.7 µM (inactive); in the assay with UO-31, 60.1 µM (inactive); in the assay on SW-620, 18.6 µM (inactive). Further, the GI50 in the assay on SK-MEL-2 is 27.1 µM (inactive); in the assay with RXF 393 it was 15.9 µM (inactive); in the assay with LOX IMVI it was 19.4 µM (inactive); in the assay with UACC-62, 19.7 µM (inactive); in the assay with HOP-62, > 58.1 µM (inactive); in the assay on 786-0, 19.5 µM (inactive). Besides, the GI50 in the assay with NCI-H23 is 18.1 µM (inactive); in the assay on NCI-H226, > 52.5 µM (inactive); in the assay on SN12C, 21.8 µM (inactive); with HOP-92, 21.6 µM (inactive); in the assay on RPMI-8226, 26.5 µM (inactive).

On to `O=C(O)CSCC(=O)O`, for which the GI50 with CCRF-CEM, in the assay on OVCAR-8, in the assay on SK-MEL-5, in the assay on NCI/ADR-RES, in the assay with UO-31 and in the assay with SW-620 was > 100 µM (inactive) in each case. Further, the GI50 with SK-MEL-2, in the assay with RXF 393, in the assay on LOX IMVI, in the assay with UACC-62, in the assay with HOP-62 and in the assay with 786-0 was > 100 µM (inactive) in each case. The GI50 with BT-549, with NCI-H23, in the assay on NCI-H226, in the assay with SN12C and with HOP-92 was > 100 µM (inactive) throughout.

In the case of `C#CCCOC1(OC)N=NC(C)(C)O1` (stereo not given), the GI50 with CCRF-CEM, with SF-539, in the assay on OVCAR-8, in the assay on SK-MEL-5, with NCI/ADR-RES and in the assay on UO-31 was > 100 µM (inactive) in each case. The GI50 with SW-620, with SK-MEL-2, in the assay with RXF 393, in the assay on T47D, in the assay with LOX IMVI and with UACC-62 was > 100 µM (inactive) throughout. In addition, the GI50 in the assay on HOP-62, with 786-0, in the assay on NCI-H23, in the assay on NCI-H226, in the assay on SN12C and with HOP-92 was > 100 µM (inactive) throughout. Also, the GI50 in the assay with RPMI-8226 was > 100 µM (inactive).

On to `CCCCCCCC(=O)OCC1OC(OC)C(NC(=O)N(CCCl)N=O)C(O)C1O` (stereo not given), for which the GI50 in the assay on CCRF-CEM is 4.06 µM (inactive); with SF-539, 2.64 µM (inactive); in the assay on OVCAR-8, 18.2 µM (inactive); with SK-MEL-5, 15.1 µM (inactive); with UO-31 it was 17.6 µM (inactive); in the assay with SW-620, 4.17 µM (inactive). For the same compound, the GI50 in the assay with SK-MEL-2 is 17.1 µM (inactive); in the assay on RXF 393 it was 16.1 µM (inactive); in the assay on LOX IMVI, 0.908 µM (active); in the assay on UACC-62, 1.86 µM (inactive); in the assay with HOP-62, 4.27 µM (inactive); in the assay on 786-0 it was 3.92 µM (inactive). For the same compound, the GI50 in the assay with NCI-H23 was 8.28 µM (inactive); with NCI-H226, 15.7 µM (inactive); with SN12C, 7.67 µM (inactive); with HOP-92, 1.36 µM (inactive); with RPMI-8226 it was 16.3 µM (inactive).

As to `COc1ccc(C(=O)C(c2ccc(OCc3ccccc3)cc2)c2ccc(OCc3ccccc3)cc2)cc1`, the GI50 in the assay with CCRF-CEM, in the assay with SF-539, in the assay on OVCAR-8, in the assay on SK-MEL-5, in the assay with UO-31 and in the assay on SW-620 was > 100 µM (inactive) each time. Further, the GI50 in the assay with SK-MEL-2, in the assay on RXF 393, with LOX IMVI, with UACC-62, in the assay on HOP-62 and in the assay with 786-0 was > 100 µM (inactive) throughout. Also, the GI50 in the assay on NCI-H23, in the assay on NCI-H226, in the assay on SN12C, in the assay with HOP-92 and with RPMI-8226 was > 100 µM (inactive) each time.

In the case of `CN(CC(=O)O)c1ncc2c(n1)CCCC2`, the GI50 with CCRF-CEM, in the assay with SF-539, in the assay on OVCAR-8, in the assay on SK-MEL-5, with NCI/ADR-RES and in the assay with UO-31 was > 100 µM (inactive) each time. Further, the GI50 with SW-620, in the assay with SK-MEL-2, in the assay on RXF 393, with LOX IMVI, in the assay on UACC-62 and with HOP-62 was > 100 µM (inactive) in each case. Besides, the GI50 in the assay on 786-0, in the assay on NCI-H23, in the assay with NCI-H226, in the assay with SN12C, in the assay on HOP-92 and with RPMI-8226 was > 100 µM (inactive) each time.

In the case of `NC(=O)/N=C1/CCC2C3CCCC2C13`, the GI50 in the assay on CCRF-CEM, in the assay on SF-539, in the assay with OVCAR-8, with SK-MEL-5, in the assay on UO-31 and in the assay with SW-620 was > 100 µM (inactive) each time. The GI50 with SK-MEL-2 was 60.7 µM (inactive); in the assay with RXF 393, > 100 µM (inactive); in the assay with LOX IMVI, > 100 µM (inactive); in the assay with UACC-62, > 100 µM (inactive); in the assay with HOP-62 it was > 100 µM (inactive); with 786-0, > 100 µM (inactive). Also, the GI50 in the assay with NCI-H23 is > 100 µM (inactive); in the assay with NCI-H226, 81.5 µM (inactive); in the assay on SN12C it was > 100 µM (inactive); in the assay with HOP-92, > 100 µM (inactive); with RPMI-8226, > 100 µM (inactive).

`O=Cc1c2c(cc3c1CC1(C3)Cc3cc4c(c(C=O)c3C1)CCC4)CCC2`: the GI50 with CCRF-CEM is 17 µM (inactive); in the assay on SF-539, 37.5 µM (inactive); in the assay on OVCAR-8 it was 47.3 µM (inactive); in the assay with SK-MEL-5, 29.9 µM (inactive); with NCI/ADR-RES it was 68.2 µM (inactive); with UO-31, 2.37 µM (inactive). Further, the GI50 was 21.3 µM (inactive) with SK-MEL-2; 41.3 µM (inactive) in the assay with RXF 393; 46.1 µM (inactive) with T47D; 21.8 µM (inactive) with LOX IMVI; 22.3 µM (inactive) in the assay on UACC-62; 17.1 µM (inactive) in the assay on HOP-62. Further, the GI50 with 786-0 is > 100 µM (inactive); with NCI-H23, 45.3 µM (inactive); in the assay with NCI-H226, 29.1 µM (inactive); in the assay with SN12C, 65.9 µM (inactive); in the assay with HOP-92, 23 µM (inactive); in the assay with RPMI-8226, 43.6 µM (inactive).

On to `CN(C)C(=O)N1N[C@H](c2ccccc2)[C@@H]1c1ccccc1`, for which the GI50 in the assay on CCRF-CEM, in the assay on SF-539, in the assay with OVCAR-8, in the assay on SK-MEL-5, with NCI/ADR-RES and in the assay with UO-31 was > 100 µM (inactive) in each case. In addition, the GI50 with SW-620 is > 100 µM (inactive); with SK-MEL-2, > 100 µM (inactive); in the assay on RXF 393, 13.5 µM (inactive); in the assay with T47D, > 100 µM (inactive); in the assay with LOX IMVI, > 100 µM (inactive); with UACC-62 it was > 100 µM (inactive). Moreover, the GI50 with HOP-62, in the assay with 786-0, with NCI-H23, in the assay on NCI-H226, with SN12C and with HOP-92 was > 100 µM (inactive) in each case. Further, the GI50 with RPMI-8226 was > 100 µM (inactive).

Turning to `O=C(/C=C\c1ccccc1)Oc1ccc(/C=C2\CCCCC2=O)cc1`, the GI50 is 4.98 µM (inactive) with CCRF-CEM; 28.7 µM (inactive) with SF-539; 37.8 µM (inactive) in the assay on OVCAR-8; 18.9 µM (inactive) in the assay on SK-MEL-5; 64.7 µM (inactive) with UO-31; 40.3 µM (inactive) with SW-620. For the same compound, the GI50 in the assay with SK-MEL-2 was 39.2 µM (inactive); with T47D, 92.5 µM (inactive); in the assay on LOX IMVI, 60.4 µM (inactive); in the assay on UACC-62, 0.1 µM (active); in the assay with HOP-62, 72.1 µM (inactive); with 786-0 it was 37.4 µM (inactive). Further, the GI50 in the assay on NCI-H23 was 45.8 µM (inactive); in the assay on SN12C it was 55.3 µM (inactive); in the assay on HOP-92, 69 µM (inactive); in the assay on RPMI-8226, 21.5 µM (inactive).

Take `COc1ccc(-c2coc3cc(O)ccc3c2=O)cc1` [FORMONONETIN]: the GI50 in the assay on CCRF-CEM is > 100 µM (inactive); in the assay on SF-539, > 100 µM (inactive); with OVCAR-8, > 100 µM (inactive); in the assay on SK-MEL-5, > 100 µM (inactive); in the assay with NCI/ADR-RES, > 100 µM (inactive); in the assay on UO-31, 90.6 µM (inactive). Further, the GI50 in the assay with SW-620, in the assay on SK-MEL-2, with T47D, in the assay with UACC-62, in the assay on HOP-62 and in the assay with 786-0 was > 100 µM (inactive) each time. Moreover, the GI50 in the assay with NCI-H23, in the assay on NCI-H226 and in the assay with SN12C was > 100 µM (inactive) in each case.
